Measured values: patent US10611740B2, “Aryl dihydro-2H-benzo[b][1,4]oxazine sulfonamide and related compounds for use as agonists of RORγ and the treatment of disease” (Lycera Corporation, priority 2015, dated 2020)

Tests used:
Gal4-RORγ-LBD = molecular target: T1, Gal4-RORγ-LBD (Homo sapiens, UniProt P51449); experiment: Gal4-RORγ Luciferase Reporter Assay in HEK-293T Cells; type: cell-based; details: HEK-293 cells, luciferase reporter, with 2 μM ursolic acid
T1 construct: expressed in transfected cells; host or cells: HEK-293 cells (pcDNA3.1neo plasmid)
T1 sequence (P51449 269-508 limits assumed): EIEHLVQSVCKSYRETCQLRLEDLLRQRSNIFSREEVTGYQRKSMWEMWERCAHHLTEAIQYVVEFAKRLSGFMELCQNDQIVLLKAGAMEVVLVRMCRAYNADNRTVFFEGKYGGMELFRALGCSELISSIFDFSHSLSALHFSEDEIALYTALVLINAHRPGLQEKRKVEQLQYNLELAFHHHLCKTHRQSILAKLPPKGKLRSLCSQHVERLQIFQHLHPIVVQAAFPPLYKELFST
Outline: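 HEK-293 cells were transiently co-transfected with Gal4-RORγ-LBD and pGL4.31 Gal4-luciferase, with ursolic acid added at 2 μM final. Compounds were incubated overnight at 37° C. in 0.2% DMSO and luminescence read with One-Glo. Max Response is the upper plateau of a 4-parameter logistic fit, with signal lacking ursolic acid or compound set to 100.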

RORγ-LBD = molecular target: T2, RORγ-LBD (Homo sapiens, UniProt P51449); experiment: RORγ-Ligand Binding Domain (LBD) TR-FRET Assay; type: biochemical;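 for TR-FRET Assay Max Response: 665/615 nm ratio relative to signal without ursolic acid or compound set at 100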
T2 construct: made in house; host or cells: SF9 cells (baculovirus)
T2 sequence (P51449 269-508 limits assumed): T1 sequence (P51449 269-508 limits assumed)
Outline: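 Compounds, diluted in DMSO and then in assay buffer (1% DMSO final), were combined with His-tagged RORγ-LBD lysate at roughly 3 nM final and a 200 nM biotinylated SRC1 LXXLL peptide. Ursolic acid was included at 2 μM final. Coactivator recruitment was detected by TR-FRET.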

## O=C(O)CNC(=O)NCC[C@H]1CN(S(=O)(=O)c2cccc(C(F)(F)F)c2)c2cc(-c3cc(F)ccc3F)ccc2O1 [Compound 23X, (S)-((2-(6-(2,5-difluorophenyl)-4-((3-(trifluoromethyl)phenyl)-sulfonyl)-3,4-dihydro-2H-benzo[b][1,4]oxazin-2-yl)ethyl)carbamoyl)glycine]
Gal4-RORγ-LBD
  EC50: 500 to 5000 nM
  Gal4-RORγ Assay Max Response: ** (The symbol “**” indicates a value in the range of greater than 90 to 150)
RORγ-LBD
  EC50: < 500 nM
  TR-FRET Assay Max Response: **** (The symbol “****” indicates a value greater than 200)

## CN(CCC(=O)O)C(=O)NCC[C@H]1CN(S(=O)(=O)c2cccc(C(F)(F)F)c2)c2cc(-c3cc(F)ccc3F)ccc2O1 [Compound 23Y, (S)-3-(3-(2-(6-(2,5-difluoro-phenyl)-4-((3-(trifluoromethyl)-phenyl)sulfonyl)-3,4-dihydro-2H-benzo[b][1,4]oxazin-2-yl)ethyl)-1-methylureido)propanoic acid]
Gal4-RORγ-LBD
  EC50: < 500 nM
  Gal4-RORγ Assay Max Response: ** (The symbol “**” indicates a value in the range of greater than 90 to 150)
RORγ-LBD
  EC50: < 500 nM
  TR-FRET Assay Max Response: *** (The symbol “***” indicates a value in the range of greater than 150 to 200)

## Cc1cnc(-c2ccc3c(c2)N(S(=O)(=O)c2cccc(C(F)(F)F)c2)C[C@H](CCC(=O)O)O3)o1 [Compound 26, (S)-3-(6-(5-methyloxazol-2-yl)-4-((3-(trifluoromethyl)phenyl)sulfonyl)-3,4-dihydro-2H-benzo[b][1,4]oxazin-2-yl)propanoic acid]
Gal4-RORγ-LBD
  EC50: 500 to 5000 nM
  Gal4-RORγ Assay Max Response: * (The symbol “*” indicates a value in the range of 25 to 90)
RORγ-LBD
  EC50: 500 to 5000 nM
  TR-FRET Assay Max Response: *** (The symbol “***” indicates a value in the range of greater than 150 to 200)

## NCC[C@H]1CN(S(=O)(=O)c2cccc(C(F)(F)F)c2)c2cc(-c3cc(F)ccc3F)ccc2O1 [Compound 27, (S)-2-(6-(2,5-difluorophenyl)-4-((3-(trifluoromethyl)phenyl)sulfonyl)-3,4-dihydro-2H-benzo[b][1,4]oxazin-2-yl)ethan-1-amine]
Gal4-RORγ-LBD
  EC50: 500 to 5000 nM
  Gal4-RORγ Assay Max Response: * (The symbol “*” indicates a value in the range of 25 to 90)
RORγ-LBD
  EC50: < 500 nM
  TR-FRET Assay Max Response: **** (The symbol “****” indicates a value greater than 200)

## O=c1[nH]nc(CC[C@H]2CN(S(=O)(=O)c3cccc(C(F)(F)F)c3)c3cc(-c4cccc(C(F)(F)F)n4)ccc3O2)o1 [Compound 28A, (S)-5-(2-(4-((3-(trifluoromethyl)-phenyl)sulfonyl)-6-(6-(trifluoromethyl)pyridin-2-yl)-3,4-dihydro-2H-benzo[b][1,4]oxazin-2-yl)ethyl)-1,3,4-oxadiazol-2(3H)-one]
Gal4-RORγ-LBD
  EC50: < 500 nM
  Gal4-RORγ Assay Max Response: ** (The symbol “**” indicates a value in the range of greater than 90 to 150)
RORγ-LBD
  EC50: < 500 nM
  TR-FRET Assay Max Response: **** (The symbol “****” indicates a value greater than 200)

## CN(C)c1cccc(-c2ccc3c(c2)N(S(=O)(=O)c2cccc(C(F)(F)F)c2)C[C@H](CCc2n[nH]c(=O)o2)O3)n1 [Compound 28B, (S)-5-(2-(6-(6-(dimethylamino)-pyridin-2-yl)-4-((3-(trifluoro-methyl)phenyl)sulfonyl)-3,4-dihydro-2H-benzo[b][1,4]oxazin-2-yl)ethyl)-1,3,4-oxadiazol-2(3H)-one]
Gal4-RORγ-LBD
  EC50: < 500 nM
  Gal4-RORγ Assay Max Response: ** (The symbol “**” indicates a value in the range of greater than 90 to 150)
RORγ-LBD
  EC50: < 500 nM
  TR-FRET Assay Max Response: **** (The symbol “****” indicates a value greater than 200)

## O=c1[nH]nc(CC[C@H]2CN(S(=O)(=O)c3cccc(C(F)(F)F)c3)c3cc(-c4cncc(C(F)(F)F)c4)ccc3O2)o1 [Compound 28C, (S)-5-(2-(4-((3-(trifluoromethyl)-phenyl)sulfonyl)-6-(5-(trifluoromethyl)pyridin-3-yl)-3,4-dihydro-2H-benzo[b][1,4]oxazin-2-yl)ethyl)-1,3,4-oxadiazol-2(3H)-one]
Gal4-RORγ-LBD
  EC50: < 500 nM
  Gal4-RORγ Assay Max Response: * (The symbol “*” indicates a value in the range of 25 to 90)
RORγ-LBD
  EC50: < 500 nM
  TR-FRET Assay Max Response: **** (The symbol “****” indicates a value greater than 200)

## CC(C)c1cccc(S(=O)(=O)N2C[C@H](CCc3n[nH]c(=O)o3)Oc3ccc(-c4cc(F)ccc4F)cc32)c1 [Compound 28D, (S)-5-(2-(6-(2,5-difluorophenyl)-4-((3-isopropylphenyl)sulfonyl)-3,4-dihydro-2H-benzo[b][1,4]-oxazin-2-yl)ethyl)-1,3,4-oxadiazol-2(3H)-one]
Gal4-RORγ-LBD
  EC50: < 500 nM
  Gal4-RORγ Assay Max Response: ** (The symbol “**” indicates a value in the range of greater than 90 to 150)
RORγ-LBD
  EC50: < 500 nM
  TR-FRET Assay Max Response: **** (The symbol “****” indicates a value greater than 200)

## COc1cccc(-c2ccc3c(c2)N(S(=O)(=O)c2cccc(C(F)(F)F)c2)C[C@H](CCc2n[nH]c(=O)o2)O3)c1 [Compound 28E, (S)-5-(2-(6-(3-methoxyphenyl)-4-((3-(trifluoromethyl)phenyl)-sulfonyl)-3,4-dihydro-2H-benzo[b][1,4]oxazin-2-yl)ethyl)-1,3,4-oxadiazol-2(3H)-one]
Gal4-RORγ-LBD
  EC50: < 500 nM
  Gal4-RORγ Assay Max Response: ** (The symbol “**” indicates a value in the range of greater than 90 to 150)
RORγ-LBD
  EC50: < 500 nM
  TR-FRET Assay Max Response: **** (The symbol “****” indicates a value greater than 200)

## CC(C)c1cccc(S(=O)(=O)N2C[C@H](CCc3n[nH]c(=O)o3)Oc3ccc(-c4cccc(N(C)C)n4)cc32)c1 [Compound 28F, (S)-5-(2-(6-(6-(dimethylamino)-pyridin-2-yl)-4-((3-isopropyl-phenyl)sulfonyl)-3,4-dihydro-2H-benzo[b][1,4]oxazin-2-yl)ethyl)-1,3,4-oxadiazol-2(3H)-one]
Gal4-RORγ-LBD
  EC50: < 500 nM
  Gal4-RORγ Assay Max Response: ** (The symbol “**” indicates a value in the range of greater than 90 to 150)
RORγ-LBD
  EC50: < 500 nM
  TR-FRET Assay Max Response: **** (The symbol “****” indicates a value greater than 200)

## COc1cc(F)cc(-c2ccc3c(c2)N(S(=O)(=O)c2cccc(C(F)(F)F)c2)C[C@H](CCc2n[nH]c(=O)o2)O3)c1F [Compound 28G, (S)-5-(2-(6-(2,5-difluoro-3-methoxyphenyl)-4-((3-(trifluoromethyl)phenyl)sulfonyl)-3,4-dihydro-2H-benzo[b][1,4]-oxazin-2-yl)ethyl)-1,3,4-oxadiazol-2(3H)-one]
Gal4-RORγ-LBD
  EC50: < 500 nM
  Gal4-RORγ Assay Max Response: ** (The symbol “**” indicates a value in the range of greater than 90 to 150)
RORγ-LBD
  EC50: < 500 nM
  TR-FRET Assay Max Response: **** (The symbol “****” indicates a value greater than 200)

## COc1cc(-c2ccc3c(c2)N(S(=O)(=O)c2cccc(C(F)(F)F)c2)C[C@H](CCc2n[nH]c(=O)o2)O3)nc(N(C)C)c1 [Compound 28H, (S)-5-(2-(6-(6-(dimethylamino)-4-methoxypyridin-2-yl)-4-((3-(trifluoromethyl)phenyl)sulfonyl)-3,4-dihydro-2H-benzo[b][1,4]-oxazin-2-yl)ethyl)-1,3,4-oxadiazol-2(3H)-one]
Gal4-RORγ-LBD
  EC50: < 500 nM
  Gal4-RORγ Assay Max Response: * (The symbol “*” indicates a value in the range of 25 to 90)
RORγ-LBD
  EC50: < 500 nM
  TR-FRET Assay Max Response: **** (The symbol “****” indicates a value greater than 200)

## O=c1[nH]nc(CC[C@H]2CN(S(=O)(=O)c3cccc(C(F)(F)F)c3)c3cc(-c4cc(F)cc(F)c4Cl)ccc3O2)o1 [Compound 28I, (S)-5-(2-(6-(2-chloro-3,5-difluorophenyl)-4-((3-(trifluoromethyl)phenyl)sulfonyl)-3,4-dihydro-2H-benzo[b][1,4]oxazin-2-yl)ethyl)-1,3,4-oxadiazol-2(3H)-one]
Gal4-RORγ-LBD
  EC50: < 500 nM
  Gal4-RORγ Assay Max Response: ** (The symbol “**” indicates a value in the range of greater than 90 to 150)
RORγ-LBD
  EC50: < 500 nM
  TR-FRET Assay Max Response: **** (The symbol “****” indicates a value greater than 200)

## COc1cc(S(=O)(=O)N2C[C@H](CCc3n[nH]c(=O)o3)Oc3ccc(-c4cc(F)ccc4F)cc32)ccc1F [Compound 28J, (S)-5-(2-(6-(2,5-difluorophenyl)-4-((4-fluoro-3-methoxyphenyl)-sulfonyl)-3,4-dihydro-2H-benzo[b][1,4]oxazin-2-yl)ethyl)-1,3,4-oxadiazol-2(3H)-one]
Gal4-RORγ-LBD
  EC50: < 500 nM
  Gal4-RORγ Assay Max Response: ** (The symbol “**” indicates a value in the range of greater than 90 to 150)
RORγ-LBD
  EC50: < 500 nM
  TR-FRET Assay Max Response: **** (The symbol “****” indicates a value greater than 200)

## COc1cc(S(=O)(=O)N2C[C@H](CCc3n[nH]c(=O)o3)Oc3ccc(-c4cccc(C(F)(F)F)n4)cc32)ccc1F [Compound 28K, (S)-5-(2-(4-((4-fluoro-3-methoxyphenyl)sulfonyl)-6-(6-(trifluoromethyl)pyridin-2-yl)-3,4-dihydro-2H-benzo[b][1,4]oxazin-2-yl)ethyl)-1,3,4-oxadiazol-2(3H)-one]
Gal4-RORγ-LBD
  EC50: < 500 nM
  Gal4-RORγ Assay Max Response: ** (The symbol “**” indicates a value in the range of greater than 90 to 150)
RORγ-LBD
  EC50: < 500 nM
  TR-FRET Assay Max Response: **** (The symbol “****” indicates a value greater than 200)
